According to ChEMBL document CHEMBL1201862, “PubChem BioAssay data set” (2004):
The source made the active and inactive calls.

How the values were obtained:
[1] = target: T1, Sentrin-specific protease 6 (Homo sapiens, UniProt Q9GZR1); test: SAR Analysis of small molecule inhibitors of Sentrin-specific protease 6 (SENP6) using a Luminescent assay. [Related pubchem assays (depositor defined):AID2582, AID2599]; format: functional
T1 sequence (Q9GZR1 whole entry): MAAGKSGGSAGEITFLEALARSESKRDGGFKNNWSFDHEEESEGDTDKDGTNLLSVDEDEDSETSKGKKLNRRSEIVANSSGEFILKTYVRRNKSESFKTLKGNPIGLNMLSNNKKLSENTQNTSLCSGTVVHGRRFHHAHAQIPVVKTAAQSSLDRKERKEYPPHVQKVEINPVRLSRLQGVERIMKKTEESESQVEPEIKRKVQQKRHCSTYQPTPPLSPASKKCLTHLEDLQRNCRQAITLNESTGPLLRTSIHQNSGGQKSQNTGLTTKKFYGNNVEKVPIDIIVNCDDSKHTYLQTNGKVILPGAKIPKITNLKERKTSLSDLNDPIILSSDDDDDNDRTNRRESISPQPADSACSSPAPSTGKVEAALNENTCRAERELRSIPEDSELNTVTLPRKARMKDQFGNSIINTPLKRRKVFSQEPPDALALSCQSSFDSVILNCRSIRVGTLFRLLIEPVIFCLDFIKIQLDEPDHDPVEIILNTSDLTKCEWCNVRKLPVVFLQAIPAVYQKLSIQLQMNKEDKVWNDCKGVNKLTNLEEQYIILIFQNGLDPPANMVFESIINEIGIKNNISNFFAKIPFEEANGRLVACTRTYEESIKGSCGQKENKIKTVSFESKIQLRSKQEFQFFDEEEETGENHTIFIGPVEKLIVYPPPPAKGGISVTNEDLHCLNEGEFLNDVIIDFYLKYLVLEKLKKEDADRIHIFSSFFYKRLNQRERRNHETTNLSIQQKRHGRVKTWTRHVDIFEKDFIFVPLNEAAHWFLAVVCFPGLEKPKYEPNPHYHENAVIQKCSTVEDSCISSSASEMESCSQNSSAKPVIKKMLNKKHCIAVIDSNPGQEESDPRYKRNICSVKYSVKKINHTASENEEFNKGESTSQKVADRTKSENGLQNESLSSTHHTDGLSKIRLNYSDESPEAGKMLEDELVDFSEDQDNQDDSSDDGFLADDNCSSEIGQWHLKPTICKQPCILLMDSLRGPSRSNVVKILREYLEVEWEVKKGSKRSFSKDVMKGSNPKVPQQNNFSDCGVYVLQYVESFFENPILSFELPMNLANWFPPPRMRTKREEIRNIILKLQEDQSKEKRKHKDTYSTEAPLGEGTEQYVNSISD

Caspase-3 [2] = target: T2, Caspase-3 (Homo sapiens, UniProt P42574); test: SAR Analysis of small molecule inhibitors of Sentrin-specific proteases (SENPs) using a Caspase-3 Selectivity assay. [Related pubchem assays (depositor defined):AID2540, AID2599, AID434973, AID489001]; format: functional
T2 sequence (P42574 whole entry): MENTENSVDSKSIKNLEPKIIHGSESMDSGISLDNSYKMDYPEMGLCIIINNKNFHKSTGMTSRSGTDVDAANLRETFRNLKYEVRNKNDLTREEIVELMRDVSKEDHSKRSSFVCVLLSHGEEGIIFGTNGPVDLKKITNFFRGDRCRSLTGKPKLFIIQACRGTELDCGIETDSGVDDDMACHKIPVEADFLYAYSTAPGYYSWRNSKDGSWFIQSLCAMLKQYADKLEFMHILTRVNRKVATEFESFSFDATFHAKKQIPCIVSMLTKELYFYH

[3] = target: T3, Sentrin-specific protease 8 (Homo sapiens, UniProt Q96LD8); test: inhibition of human SENP8 cleavage activity – biochemical, luminescence, SAR follow-up (AID 504501); format: functional
T3 sequence (Q96LD8 whole entry): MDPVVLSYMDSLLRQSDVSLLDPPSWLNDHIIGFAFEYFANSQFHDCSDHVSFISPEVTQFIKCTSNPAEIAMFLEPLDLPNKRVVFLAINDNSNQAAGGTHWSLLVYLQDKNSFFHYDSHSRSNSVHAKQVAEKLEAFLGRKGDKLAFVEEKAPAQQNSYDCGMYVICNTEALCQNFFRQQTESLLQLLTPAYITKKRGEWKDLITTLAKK

[4] = target: T4, Sentrin-specific protease 7 (Homo sapiens, UniProt Q9BQF6); test: inhibition of human SENP7 cleavage activity – biochemical, luminescence, SAR follow-up (AID 504497); format: functional
T4 sequence (Q9BQF6 whole entry): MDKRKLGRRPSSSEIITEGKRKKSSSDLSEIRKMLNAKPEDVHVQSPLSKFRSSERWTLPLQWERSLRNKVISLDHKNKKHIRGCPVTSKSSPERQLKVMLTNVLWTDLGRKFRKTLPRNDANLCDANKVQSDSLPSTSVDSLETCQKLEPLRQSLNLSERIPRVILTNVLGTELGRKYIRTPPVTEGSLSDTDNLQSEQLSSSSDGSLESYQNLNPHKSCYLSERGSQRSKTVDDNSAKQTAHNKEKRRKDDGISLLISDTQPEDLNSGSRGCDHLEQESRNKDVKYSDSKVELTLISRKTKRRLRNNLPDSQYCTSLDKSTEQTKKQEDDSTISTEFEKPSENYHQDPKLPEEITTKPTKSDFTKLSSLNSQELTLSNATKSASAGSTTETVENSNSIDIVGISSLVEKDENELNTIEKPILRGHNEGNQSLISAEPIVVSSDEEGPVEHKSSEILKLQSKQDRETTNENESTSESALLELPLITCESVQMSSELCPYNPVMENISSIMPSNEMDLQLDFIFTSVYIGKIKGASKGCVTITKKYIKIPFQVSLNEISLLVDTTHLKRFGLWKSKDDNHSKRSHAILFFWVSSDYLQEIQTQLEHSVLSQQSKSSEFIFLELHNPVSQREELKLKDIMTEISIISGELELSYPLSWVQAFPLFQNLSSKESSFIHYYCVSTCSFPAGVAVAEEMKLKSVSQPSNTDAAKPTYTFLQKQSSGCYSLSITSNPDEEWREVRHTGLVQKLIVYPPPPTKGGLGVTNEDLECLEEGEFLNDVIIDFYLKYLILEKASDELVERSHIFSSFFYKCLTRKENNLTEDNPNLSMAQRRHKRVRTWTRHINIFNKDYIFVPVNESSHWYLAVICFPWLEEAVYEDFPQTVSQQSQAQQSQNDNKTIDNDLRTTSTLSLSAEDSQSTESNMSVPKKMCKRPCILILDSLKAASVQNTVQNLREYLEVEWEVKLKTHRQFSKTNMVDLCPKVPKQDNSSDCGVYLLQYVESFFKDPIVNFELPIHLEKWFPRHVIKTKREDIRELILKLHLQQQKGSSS

[5] = target: T5, Endoribonuclease toxin MazF (Escherichia coli K-12, UniProt P0AE70); test: activation of MazEF endoribonuclease cleavage – biochemical, fluorescence, single-stranded RNA substrate, uHTS hits, dose response (AID 588481); format: functional
T5 sequence (P0AE70 whole entry): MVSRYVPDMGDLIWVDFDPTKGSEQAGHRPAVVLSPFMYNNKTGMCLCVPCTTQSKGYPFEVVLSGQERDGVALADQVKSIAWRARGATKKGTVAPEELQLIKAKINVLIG

Vero = test: viability of Vero cells under compound – cytotoxicity control for flavivirus capping enzyme inhibitors (AID 588742); format: functional; details: Chlorocebus sabaeus
Fatty acid synthase [6] = target: T6, Fatty acid synthase (Homo sapiens, UniProt P49327); test: inhibition of human FAS-TE enzyme activity – biochemical, kinetic fluorescence intensity, dose response (AID 624326); format: functional;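 also: rate of fluorescence rise from hydrolysis of a fluorogenic O-methyl fluorescein ester substrate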
T6 sequence (P49327 whole entry): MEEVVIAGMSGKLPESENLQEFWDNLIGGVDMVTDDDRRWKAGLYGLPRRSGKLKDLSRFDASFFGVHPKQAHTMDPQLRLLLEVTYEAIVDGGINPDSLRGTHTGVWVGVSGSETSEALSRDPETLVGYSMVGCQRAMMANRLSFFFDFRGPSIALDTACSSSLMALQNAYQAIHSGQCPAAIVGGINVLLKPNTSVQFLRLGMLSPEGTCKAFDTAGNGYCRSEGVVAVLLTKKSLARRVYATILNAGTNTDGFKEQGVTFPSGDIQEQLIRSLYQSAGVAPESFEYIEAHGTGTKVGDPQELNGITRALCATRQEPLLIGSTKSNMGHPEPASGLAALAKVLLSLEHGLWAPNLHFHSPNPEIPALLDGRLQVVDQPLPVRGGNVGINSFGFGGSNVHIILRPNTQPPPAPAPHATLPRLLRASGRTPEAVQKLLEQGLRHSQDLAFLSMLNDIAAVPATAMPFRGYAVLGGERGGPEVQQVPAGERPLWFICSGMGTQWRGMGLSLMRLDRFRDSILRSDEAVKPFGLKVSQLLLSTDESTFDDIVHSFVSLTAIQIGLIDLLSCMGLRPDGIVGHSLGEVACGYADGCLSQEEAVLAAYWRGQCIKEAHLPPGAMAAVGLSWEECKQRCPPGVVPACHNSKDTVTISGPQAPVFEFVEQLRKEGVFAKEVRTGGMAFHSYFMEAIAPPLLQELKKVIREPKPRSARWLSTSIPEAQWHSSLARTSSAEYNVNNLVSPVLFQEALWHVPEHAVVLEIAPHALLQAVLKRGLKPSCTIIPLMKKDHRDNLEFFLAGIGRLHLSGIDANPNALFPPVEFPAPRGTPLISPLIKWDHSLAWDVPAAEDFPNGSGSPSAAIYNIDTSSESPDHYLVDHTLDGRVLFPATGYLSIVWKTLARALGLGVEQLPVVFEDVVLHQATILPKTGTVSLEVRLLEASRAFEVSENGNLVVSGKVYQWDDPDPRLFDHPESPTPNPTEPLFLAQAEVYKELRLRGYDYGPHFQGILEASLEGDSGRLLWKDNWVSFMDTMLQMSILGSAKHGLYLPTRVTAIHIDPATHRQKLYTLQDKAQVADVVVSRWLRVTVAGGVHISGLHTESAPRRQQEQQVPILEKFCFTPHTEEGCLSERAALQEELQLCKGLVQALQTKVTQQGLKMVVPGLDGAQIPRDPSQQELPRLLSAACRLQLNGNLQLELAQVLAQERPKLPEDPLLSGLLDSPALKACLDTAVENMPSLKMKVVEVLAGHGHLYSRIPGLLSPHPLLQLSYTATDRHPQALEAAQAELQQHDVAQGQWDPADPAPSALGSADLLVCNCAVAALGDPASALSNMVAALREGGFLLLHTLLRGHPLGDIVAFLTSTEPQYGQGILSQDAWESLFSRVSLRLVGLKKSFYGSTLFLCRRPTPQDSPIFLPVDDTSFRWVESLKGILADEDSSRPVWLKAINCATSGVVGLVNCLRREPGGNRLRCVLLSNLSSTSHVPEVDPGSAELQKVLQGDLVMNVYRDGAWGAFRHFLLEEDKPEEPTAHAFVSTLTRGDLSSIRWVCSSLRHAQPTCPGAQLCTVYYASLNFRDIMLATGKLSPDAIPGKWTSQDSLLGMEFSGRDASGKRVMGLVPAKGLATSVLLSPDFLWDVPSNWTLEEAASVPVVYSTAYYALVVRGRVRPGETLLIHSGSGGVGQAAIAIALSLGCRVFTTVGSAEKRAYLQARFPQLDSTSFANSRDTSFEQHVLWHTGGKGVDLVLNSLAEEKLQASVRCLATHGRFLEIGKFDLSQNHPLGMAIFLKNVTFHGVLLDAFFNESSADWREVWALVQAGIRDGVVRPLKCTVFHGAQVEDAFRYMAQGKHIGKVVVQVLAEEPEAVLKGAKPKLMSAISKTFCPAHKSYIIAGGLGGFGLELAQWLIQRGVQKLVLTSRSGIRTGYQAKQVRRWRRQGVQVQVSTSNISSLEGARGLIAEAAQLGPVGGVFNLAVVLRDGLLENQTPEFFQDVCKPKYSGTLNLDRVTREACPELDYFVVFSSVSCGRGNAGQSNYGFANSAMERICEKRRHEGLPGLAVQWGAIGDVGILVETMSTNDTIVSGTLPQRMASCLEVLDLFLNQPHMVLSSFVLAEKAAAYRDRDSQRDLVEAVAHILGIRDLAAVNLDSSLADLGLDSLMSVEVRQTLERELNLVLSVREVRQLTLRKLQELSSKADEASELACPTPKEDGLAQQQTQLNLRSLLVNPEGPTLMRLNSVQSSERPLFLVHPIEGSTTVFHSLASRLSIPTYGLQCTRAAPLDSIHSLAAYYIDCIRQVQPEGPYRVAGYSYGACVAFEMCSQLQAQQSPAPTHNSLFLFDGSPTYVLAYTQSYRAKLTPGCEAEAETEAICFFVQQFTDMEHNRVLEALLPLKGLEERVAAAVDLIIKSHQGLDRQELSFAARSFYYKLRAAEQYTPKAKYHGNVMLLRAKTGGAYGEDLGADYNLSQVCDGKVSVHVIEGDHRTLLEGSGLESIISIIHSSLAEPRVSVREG

[7] = target: T5, Endoribonuclease toxin MazF; test: substrate-only fluorescence increase artefacts – biochemical, single-stranded RNase substrate, counter-screen for MazEF activator project, dose response (AID 588502); format: functional
[8] = target: T7, Mannose-6-phosphate isomerase (Homo sapiens, UniProt P34949); test: MPI enzyme activity inhibition – biochemical, fluorescence intensity, coupled assay, primary screen (AID 1209)
T7 sequence (P34949 whole entry): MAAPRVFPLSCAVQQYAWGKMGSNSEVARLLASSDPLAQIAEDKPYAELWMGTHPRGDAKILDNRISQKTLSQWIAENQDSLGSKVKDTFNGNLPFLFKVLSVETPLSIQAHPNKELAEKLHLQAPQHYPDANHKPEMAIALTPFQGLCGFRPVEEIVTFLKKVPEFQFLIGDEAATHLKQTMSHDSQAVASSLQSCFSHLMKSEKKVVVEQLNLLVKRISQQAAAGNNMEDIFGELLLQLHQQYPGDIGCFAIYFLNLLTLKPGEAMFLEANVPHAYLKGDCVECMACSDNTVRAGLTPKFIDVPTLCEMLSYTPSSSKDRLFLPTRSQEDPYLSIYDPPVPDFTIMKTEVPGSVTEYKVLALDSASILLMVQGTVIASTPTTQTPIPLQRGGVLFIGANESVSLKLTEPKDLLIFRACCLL

Genome polyprotein = Genome polyprotein (dengue virus type 2, UniProt P29990); test: flavivirus cap methylation enzyme inhibition – biochemical, confirmation dose response, primary screen (AID 588689); format: functional
Sequence of Genome polyprotein (P29990 2492-3391 limits assumed): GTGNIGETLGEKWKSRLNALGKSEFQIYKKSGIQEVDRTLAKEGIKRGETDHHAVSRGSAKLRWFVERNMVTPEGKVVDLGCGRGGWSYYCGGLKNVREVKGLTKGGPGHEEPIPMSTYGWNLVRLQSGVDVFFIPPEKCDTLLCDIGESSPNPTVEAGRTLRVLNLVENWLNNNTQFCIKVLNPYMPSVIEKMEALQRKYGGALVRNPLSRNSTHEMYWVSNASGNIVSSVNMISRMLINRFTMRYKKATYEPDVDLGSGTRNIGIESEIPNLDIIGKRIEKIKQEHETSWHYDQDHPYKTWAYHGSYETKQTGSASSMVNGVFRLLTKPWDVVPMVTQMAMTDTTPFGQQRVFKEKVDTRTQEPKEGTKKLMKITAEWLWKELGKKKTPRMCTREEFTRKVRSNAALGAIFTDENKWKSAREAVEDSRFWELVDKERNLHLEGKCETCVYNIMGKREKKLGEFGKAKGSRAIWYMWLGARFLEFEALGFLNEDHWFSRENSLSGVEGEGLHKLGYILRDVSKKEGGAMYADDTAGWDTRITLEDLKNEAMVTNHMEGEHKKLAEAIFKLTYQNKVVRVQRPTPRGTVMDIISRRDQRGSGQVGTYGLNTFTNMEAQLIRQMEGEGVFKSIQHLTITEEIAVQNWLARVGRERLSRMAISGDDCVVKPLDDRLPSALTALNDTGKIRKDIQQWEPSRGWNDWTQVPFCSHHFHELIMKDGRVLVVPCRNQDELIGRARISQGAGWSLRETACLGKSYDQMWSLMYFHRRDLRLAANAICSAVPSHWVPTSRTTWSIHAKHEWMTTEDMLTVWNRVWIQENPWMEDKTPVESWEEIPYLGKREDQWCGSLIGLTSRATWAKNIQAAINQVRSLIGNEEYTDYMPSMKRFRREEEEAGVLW

[9] = non-specific 3'UTR reporter inhibition in Clone20-Shn3RL – cell-based, Renilla luciferase, cherry-picked, counter-screen for Shn3 inhibitor project, dose response (AID 624133); format: functional
Fatty acid synthase [10] = target: T6, Fatty acid synthase; test: inhibition of human FAS-TE enzyme activity – biochemical, endpoint fluorescence intensity, uHTS hits, dose response (AID 624327); format: functional;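 also: fluorescence from hydrolysis of an O-methyl fluorescein acyl ester substrate by the enzyme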
Beta-galactosidase = Beta-galactosidase (Escherichia coli, UniProt Q8VNN2); test: PubChem AID 485352; format: functional
Sequence of Beta-galactosidase (Q8VNN2 whole entry): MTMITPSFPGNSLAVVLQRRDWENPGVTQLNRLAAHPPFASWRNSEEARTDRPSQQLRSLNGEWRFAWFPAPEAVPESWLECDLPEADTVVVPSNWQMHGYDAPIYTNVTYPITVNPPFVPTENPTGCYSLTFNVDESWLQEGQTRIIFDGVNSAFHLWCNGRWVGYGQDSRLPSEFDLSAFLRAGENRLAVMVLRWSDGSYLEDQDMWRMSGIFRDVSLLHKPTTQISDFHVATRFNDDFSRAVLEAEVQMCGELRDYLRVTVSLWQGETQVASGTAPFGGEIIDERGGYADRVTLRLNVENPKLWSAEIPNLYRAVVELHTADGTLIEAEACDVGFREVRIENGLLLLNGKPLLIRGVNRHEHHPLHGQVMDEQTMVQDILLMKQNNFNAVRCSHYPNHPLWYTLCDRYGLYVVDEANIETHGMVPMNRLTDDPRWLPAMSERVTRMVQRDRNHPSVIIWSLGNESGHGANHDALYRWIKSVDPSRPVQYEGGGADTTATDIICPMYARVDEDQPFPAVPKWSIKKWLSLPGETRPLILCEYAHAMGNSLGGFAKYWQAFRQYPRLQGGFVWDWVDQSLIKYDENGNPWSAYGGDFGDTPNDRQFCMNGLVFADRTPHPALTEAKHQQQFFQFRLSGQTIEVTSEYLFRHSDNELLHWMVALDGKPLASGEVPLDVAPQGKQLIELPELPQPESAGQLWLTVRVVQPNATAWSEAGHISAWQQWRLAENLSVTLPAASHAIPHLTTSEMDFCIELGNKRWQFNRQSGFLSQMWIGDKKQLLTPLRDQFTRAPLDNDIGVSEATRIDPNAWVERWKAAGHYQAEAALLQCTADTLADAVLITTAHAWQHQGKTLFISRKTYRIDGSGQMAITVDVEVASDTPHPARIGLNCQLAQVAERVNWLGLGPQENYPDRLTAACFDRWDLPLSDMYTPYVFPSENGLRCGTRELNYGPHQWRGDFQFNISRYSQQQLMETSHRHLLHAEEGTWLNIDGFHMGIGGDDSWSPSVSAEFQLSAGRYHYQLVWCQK

[11] = reduction of Shn3 3'UTR-driven luciferase in osteoblasts – cell-based, Clone20 osteoblasts, firefly luciferase, cherry-picked, dose response (AID 624132); format: functional;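 also: firefly luciferase luminescence from reporter carrying the Shn3 3'UTR in osteoblasts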
Streptococcus = test: GAS UMAA2166 growth inhibition – luminescence, BacTiterGlo, counter-screen for streptokinase expression inhibitor project, dose response (AID 1915); format: functional, organism-based;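 also: potency for reduction of bacterial viability or growth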
[12] = target: T8, Type-1 angiotensin II receptor (Homo sapiens, UniProt P30556); test: antagonism of angiotensin II type 1 receptor – cell-based, uHTS hits, selectivity assay for APJ receptor antagonist project, dose response (AID 463214); format: functional;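 also: antagonist potency against angiotensin II stimulated AT1 response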
T8 sequence (P30556 whole entry): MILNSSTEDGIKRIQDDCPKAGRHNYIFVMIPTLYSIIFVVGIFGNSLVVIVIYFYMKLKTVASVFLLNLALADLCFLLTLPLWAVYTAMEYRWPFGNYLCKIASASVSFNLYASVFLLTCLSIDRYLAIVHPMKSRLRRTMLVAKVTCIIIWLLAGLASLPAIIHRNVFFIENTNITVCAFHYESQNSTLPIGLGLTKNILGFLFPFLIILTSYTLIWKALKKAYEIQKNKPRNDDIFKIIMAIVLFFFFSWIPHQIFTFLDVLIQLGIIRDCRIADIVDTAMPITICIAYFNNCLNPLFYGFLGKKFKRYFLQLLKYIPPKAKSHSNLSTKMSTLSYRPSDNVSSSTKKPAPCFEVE

[13] = target: Glucose-6-phosphate 1-dehydrogenase (Homo sapiens, UniProt P11413); test: inhibition of Homo sapiens G6PD, dose series – biochemical, fluorescence, selectivity assay for P. falciparum G6PD inhibitor project, dose response (AID 504792); format: functional
Sequence of Glucose-6-phosphate 1-dehydrogenase (P11413 whole entry): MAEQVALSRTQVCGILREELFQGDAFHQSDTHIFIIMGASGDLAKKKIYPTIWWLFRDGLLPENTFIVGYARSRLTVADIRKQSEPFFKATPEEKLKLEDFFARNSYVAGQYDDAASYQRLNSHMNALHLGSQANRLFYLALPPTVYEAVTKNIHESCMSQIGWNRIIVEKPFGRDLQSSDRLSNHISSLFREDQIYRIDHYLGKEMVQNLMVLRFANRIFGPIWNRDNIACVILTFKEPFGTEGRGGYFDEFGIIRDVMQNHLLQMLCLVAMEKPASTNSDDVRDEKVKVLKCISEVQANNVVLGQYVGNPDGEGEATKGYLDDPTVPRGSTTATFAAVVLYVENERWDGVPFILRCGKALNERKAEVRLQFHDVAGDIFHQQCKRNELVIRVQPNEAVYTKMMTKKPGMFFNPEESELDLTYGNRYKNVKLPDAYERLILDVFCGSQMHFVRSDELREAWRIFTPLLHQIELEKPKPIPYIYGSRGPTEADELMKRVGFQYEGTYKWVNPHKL

[14] = tested on: Streptococcus sp. 'group A'; test: Streptococcus pyogenes SK(-)GAS viability under kanamycin – luminescence, BacTiterGlo, confirmation, counter-screen for streptokinase expression inhibitor project, dose response (AID 1900); format: functional, organism-based
Streptokinase A = target: T9, Streptokinase A (Streptococcus pyogenes serotype M1, UniProt P10520); test: viability-normalized secreted streptokinase activity reduction – plasminogen activation absorbance, OD405, dose response (AID 1914); format: functional, Streptococcus pyogenes M1 GAS;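 also: secreted streptokinase activity via plasminogen activation per viability signal from cell pellet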
T9 sequence (P10520 whole entry): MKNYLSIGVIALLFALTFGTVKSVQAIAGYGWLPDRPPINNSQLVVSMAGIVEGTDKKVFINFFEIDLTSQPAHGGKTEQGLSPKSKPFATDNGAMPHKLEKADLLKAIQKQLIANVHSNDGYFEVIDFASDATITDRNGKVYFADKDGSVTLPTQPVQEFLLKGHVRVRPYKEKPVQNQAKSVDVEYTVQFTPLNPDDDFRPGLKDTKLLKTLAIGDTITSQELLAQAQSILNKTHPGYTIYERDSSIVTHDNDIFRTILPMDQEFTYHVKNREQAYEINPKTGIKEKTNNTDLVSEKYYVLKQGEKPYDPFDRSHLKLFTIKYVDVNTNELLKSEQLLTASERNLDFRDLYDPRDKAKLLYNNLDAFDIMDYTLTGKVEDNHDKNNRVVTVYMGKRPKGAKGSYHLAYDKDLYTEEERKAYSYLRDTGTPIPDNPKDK

[15] = loss of viability in HepG2 cells – cell-based, CellTiter-Glo, cherry-picked, cytotoxicity control for Shn3 inhibitor project, dose response (AID 624134); format: functional
[16] = target: T1, Sentrin-specific protease 6; format: functional
[17] = target: T4, Sentrin-specific protease 7; format: functional
Caspase-3 [18] = target: T2, Caspase-3; format: functional
[19] = target: T3, Sentrin-specific protease 8; format: functional

For `O=C(NN=c1c(=O)c2ccccc2c1=O)c1ccncc1`, the IC50 [1] was 9.3 µM (active), the IC50 (Caspase-3 [2]) was 76.5 µM (active) and the IC50 [3] was 33.3 µM (active). For the same compound, the IC50 [4] was 17.8 µM (active).

For `O=[N+]([O-])c1c(NCCCO)cc(Sc2nc3ccccc3s2)c2nonc12`, the EC50 [5] was > 99 µM (inactive), the CC50 (Vero) was 26.2 µM (active) and the IC50 (Fatty acid synthase [6]) was 1.95 µM (active). The EC50 [7] was 44.1 µM (inactive), the IC50 [8] was > 50 µM (not active) and the IC50 (Genome polyprotein) was 23 µM (active). For the same compound, the AC50 [9] was 8.01 µM (active), the IC50 (Fatty acid synthase [10]) was 2.37 µM (active) and the EC50 (Beta-galactosidase) was > 40 µM (inactive). The AC50 [11] was 1.58 µM (active), the EC50 (Streptococcus) was 3.07 µM (active) and the IC50 [12] was 2.05 µM (active). For the same compound, the IC50 [13] was > 80 µM (inactive), the EC50 [14] was 2.2 µM (active) and the EC50 (Streptokinase A) was 5.49 µM (active). The AC50 [15] was 26.2 µM (active).

For `CC(=O)Nc1ccc(-c2nc3cc(Cl)ccc3o2)cc1`, the IC50 [16] was > 100 µM (inactive), the IC50 [17] was 2.77 µM (active) and the IC50 (Caspase-3 [18]) was 54.9 µM (active). The IC50 [1] was > 99 µM (inactive), the IC50 (Caspase-3 [2]) was 10.4 µM (active) and the IC50 [3] was > 99 µM (inactive). For the same compound, the IC50 [19] was > 100 µM (inactive) and the IC50 [4] was 2.7 µM (active).
